According to PubChem BioAssay (NCI):
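Here, GI50 denotes the concentration required for 50% inhibition of growth. TGI: total growth inhibition.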

Columns and labels:
Test in all cases: NCI anticancer screen, dose series, 384-well format
HL-60(TB) leukemia = system: HL-60(TB) leukemia
UACC-62 melanoma = system: UACC-62 melanoma
SN12C renal = system: SN12C renal
DU-145 prostate = system: DU-145 prostate
KM12 colon = system: KM12 colon
CCRF-CEM leukemia = system: CCRF-CEM leukemia
MDA-MB-468 breast = system: MDA-MB-468 breast
HS 578T breast = system: HS 578T breast
NCI-H226 lung = system: NCI-H226 lung
SK-MEL-2 melanoma = system: SK-MEL-2 melanoma
OVCAR-5 ovarian = system: OVCAR-5 ovarian
A498 renal = system: A498 renal
SF-295 CNS = system: SF-295 CNS
A549 NSCLC = system: A549 NSCLC
HCC-2998 colon = system: HCC-2998 colon
SF-539 CNS = system: SF-539 CNS
SK-OV-3 ovarian = system: SK-OV-3 ovarian
NCI-H460 NSCLC = system: NCI-H460 NSCLC
HOP-92 NSCLC = system: HOP-92 NSCLC
SNB-19 CNS = system: SNB-19 CNS
PC-3 prostate = system: PC-3 prostate
MALME-3M melanoma = system: MALME-3M melanoma
UACC-257 melanoma = system: UACC-257 melanoma
HCT-116 colon = system: HCT-116 colon
HCT-15 colon = system: HCT-15 colon
OVCAR-3 ovarian = system: OVCAR-3 ovarian
RXF 393 renal = system: RXF 393 renal
SK-MEL-28 melanoma = system: SK-MEL-28 melanoma
MDA-MB-435 melanoma = system: MDA-MB-435 melanoma
MDA-MB-231 breast = system: MDA-MB-231 breast
NCI-H23 lung = system: NCI-H23 lung
SK-MEL-5 melanoma = system: SK-MEL-5 melanoma
OVCAR-4 ovarian = system: OVCAR-4 ovarian
UO-31 renal = system: UO-31 renal
IGROV1 ovarian = system: IGROV1 ovarian
SW-620 colon = system: SW-620 colon
OVCAR-8 ovarian = system: OVCAR-8 ovarian
LOX IMVI melanoma = system: LOX IMVI melanoma
BT-549 breast = system: BT-549 breast
MOLT-4 leukemia = system: MOLT-4 leukemia
EKVX NSCLC = system: EKVX NSCLC
RPMI-8226 leukemia = system: RPMI-8226 leukemia
NCI-H522 lung = system: NCI-H522 lung
CAKI-1 renal = system: CAKI-1 renal
COLO 205 colon = system: COLO 205 colon
HT29 colon = system: HT29 colon
T-47D breast = system: T-47D breast
SNB-75 CNS = system: SNB-75 CNS
SF-268 CNS = system: SF-268 CNS
U251 glioblastoma = system: U251 glioblastoma
TK-10 renal = system: TK-10 renal
NCI/ADR-RES ovarian = system: NCI/ADR-RES ovarian
HOP-62 NSCLC = system: HOP-62 NSCLC
MCF7 breast = system: MCF7 breast
K-562 leukemia = system: K-562 leukemia
ACHN renal = system: ACHN renal
786-0 renal = system: 786-0 renal
M14 melanoma = system: M14 melanoma
NCI-H322M lung = system: NCI-H322M lung

## C[C@@H]1Cc2c([nH]c3ccccc23)[C@@H](c2c(F)cc(/C=C/C(=O)O)cc2F)N1CC(C)(C)F
HL-60(TB) leukemia
  GI50: 17 µM
  TGI: 30.8 µM
UACC-62 melanoma
  GI50: 15.7 µM
  TGI: 29.4 µM
SN12C renal
  GI50: 17.3 µM
  TGI: 32.3 µM
DU-145 prostate
  GI50: 15.9 µM
  TGI: 35.5 µM
KM12 colon
  GI50: 16.5 µM
  TGI: 30.5 µM
CCRF-CEM leukemia
  GI50: 13 µM
  TGI: 25.8 µM
MDA-MB-468 breast
  GI50: 20.4 µM
  TGI: 40.2 µM
HS 578T breast
  GI50: 14 µM
  TGI: 27 µM
NCI-H226 lung
  GI50: 17.4 µM
  TGI: 32.6 µM
SK-MEL-2 melanoma
  GI50: 19.7 µM
  TGI: 34.2 µM
OVCAR-5 ovarian
  GI50: 19.2 µM
  TGI: 34.3 µM
A498 renal
  GI50: 13.7 µM
  TGI: 32.4 µM
SF-295 CNS
  GI50: 16.4 µM
  TGI: 30.5 µM
A549 NSCLC
  GI50: 11.6 µM
  TGI: 24.5 µM
HCC-2998 colon
  GI50: 15.3 µM
  TGI: 28.7 µM
SF-539 CNS
  GI50: 15 µM
  TGI: 28.4 µM
SK-OV-3 ovarian
  GI50: 19.4 µM
  TGI: 39.2 µM
NCI-H460 NSCLC
  GI50: 15.3 µM
  TGI: 29 µM
HOP-92 NSCLC
  GI50: 14.5 µM
  TGI: 28 µM
SNB-19 CNS
  GI50: 15.5 µM
  TGI: 32.2 µM
PC-3 prostate
  GI50: 13.4 µM
  TGI: 26.6 µM
MALME-3M melanoma
  GI50: 14.5 µM
  TGI: 27.9 µM
UACC-257 melanoma
  GI50: 17.9 µM
  TGI: 33.4 µM
HCT-116 colon
  GI50: 14.7 µM
  TGI: 28.3 µM
HCT-15 colon
  GI50: 14.3 µM
  TGI: 27.8 µM
OVCAR-3 ovarian
  GI50: 13.3 µM
  TGI: 26.2 µM
RXF 393 renal
  GI50: 18.5 µM
  TGI: 32.6 µM
SK-MEL-28 melanoma
  GI50: 17.4 µM
  TGI: 31.4 µM
MDA-MB-435 melanoma
  GI50: 18.4 µM
  TGI: 32.9 µM
MDA-MB-231 breast
  GI50: 17.5 µM
  TGI: 31.6 µM
NCI-H23 lung
  GI50: 15.4 µM
  TGI: 29 µM
SK-MEL-5 melanoma
  GI50: 13.9 µM
  TGI: 27.2 µM
OVCAR-4 ovarian
  GI50: 12.8 µM
  TGI: 33.5 µM
UO-31 renal
  GI50: 13.9 µM
  TGI: 27.1 µM
IGROV1 ovarian
  GI50: 16.4 µM
  TGI: 31.4 µM
SW-620 colon
  GI50: 16 µM
  TGI: 29.7 µM
OVCAR-8 ovarian
  GI50: 14.9 µM
  TGI: 28.6 µM
LOX IMVI melanoma
  GI50: 17.2 µM
  TGI: 31.2 µM
BT-549 breast
  GI50: 15.6 µM
  TGI: 29.2 µM
MOLT-4 leukemia
  GI50: 11.8 µM
  TGI: 24.1 µM
EKVX NSCLC
  GI50: 15.6 µM
  TGI: 31.4 µM
RPMI-8226 leukemia
  GI50: 11.4 µM
  TGI: 23.6 µM
NCI-H522 lung
  GI50: 16.8 µM
  TGI: 30.8 µM
CAKI-1 renal
  GI50: 17.1 µM
  TGI: 32.7 µM
COLO 205 colon
  GI50: 17.7 µM
  TGI: 39.3 µM
HT29 colon
  GI50: 15.2 µM
  TGI: 28.8 µM
T-47D breast
  GI50: 10.7 µM
  TGI: 32.5 µM
SNB-75 CNS
  GI50: 17.5 µM
  TGI: 33.1 µM
SF-268 CNS
  GI50: 16.3 µM
  TGI: 30.9 µM
U251 glioblastoma
  GI50: 11.9 µM
  TGI: 24.4 µM
TK-10 renal
  GI50: 17.7 µM
  TGI: 35.2 µM
NCI/ADR-RES ovarian
  GI50: 16.8 µM
  TGI: 32 µM
HOP-62 NSCLC
  GI50: 10.2 µM
  TGI: 22.1 µM
MCF7 breast
  TGI: 18.9 µM
K-562 leukemia
  GI50: 15.4 µM
  TGI: 29.3 µM
ACHN renal
  GI50: 17.7 µM
  TGI: 35.2 µM
786-0 renal
  GI50: 14.1 µM
  TGI: 27.7 µM
M14 melanoma
  GI50: 15.7 µM
  TGI: 29.3 µM
NCI-H322M lung
  GI50: 17.9 µM
  TGI: 38.1 µM

## O=C(O)CCCc1ccc(N(CCCl)CCCl)cc1
HL-60(TB) leukemia
  GI50: 1.64 µM
  TGI: 3.75 µM
UACC-62 melanoma
  GI50: 12 µM
SN12C renal
  GI50: 10.4 µM
DU-145 prostate
  GI50: 27.3 µM
  TGI: 99.4 µM
CCRF-CEM leukemia
  GI50: 3.29 µM
  TGI: 8.55 µM
MDA-MB-468 breast
  GI50: 4.37 µM
  TGI: 21.4 µM
OVCAR-5 ovarian
  GI50: 45.7 µM
SF-295 CNS
  GI50: 18.3 µM
  TGI: 41.8 µM
A549 NSCLC
  GI50: 33.3 µM
SF-539 CNS
  GI50: 16.7 µM
  TGI: 60 µM
SK-OV-3 ovarian
  GI50: 41.1 µM
HOP-92 NSCLC
  GI50: 25.3 µM
SNB-19 CNS
  GI50: 35.3 µM
MALME-3M melanoma
  GI50: 29.9 µM
HCT-116 colon
  GI50: 28.4 µM
HCT-15 colon
  GI50: 23.7 µM
OVCAR-3 ovarian
  GI50: 28.4 µM
RXF 393 renal
  GI50: 14.7 µM
  TGI: 29.8 µM
SK-MEL-28 melanoma
  GI50: 57 µM
MDA-MB-231 breast
  GI50: 84.7 µM
NCI-H23 lung
  GI50: 19.4 µM
  TGI: 99.8 µM
UO-31 renal
  GI50: 39.8 µM
SW-620 colon
  GI50: 16.9 µM
OVCAR-8 ovarian
  GI50: 14.2 µM
LOX IMVI melanoma
  GI50: 30.4 µM
BT-549 breast
  GI50: 14.1 µM
MOLT-4 leukemia
  GI50: 1.26 µM
  TGI: 2.52 µM
RPMI-8226 leukemia
  GI50: 6.45 µM
  TGI: 23.6 µM
NCI-H522 lung
  GI50: 13.3 µM
  TGI: 27.5 µM
CAKI-1 renal
  GI50: 8.78 µM
HT29 colon
  GI50: 51.9 µM
T-47D breast
  GI50: 36 µM
SNB-75 CNS
  GI50: 19.8 µM
SF-268 CNS
  GI50: 9.3 µM
U251 glioblastoma
  GI50: 11.6 µM
NCI/ADR-RES ovarian
  GI50: 19.9 µM
HOP-62 NSCLC
  GI50: 13.6 µM
  TGI: 45.8 µM
MCF7 breast
  GI50: 41 µM
K-562 leukemia
  GI50: 41.6 µM
ACHN renal
  GI50: 8.31 µM
  TGI: 35 µM
786-0 renal
  GI50: 24.3 µM
M14 melanoma
  GI50: 19.5 µM
